Drawing on paper PMC8824665, “Rapid Assessment of Insect Steroid Hormone Entry Into Cultured Cells” (Frontiers in Physiology, 2022), this text covers EC50 for two molecules.

For this experiment, the target named is T1, EcR-RXR (EcR-LgBiT / RXR-SmBiT) (Drosophila melanogaster, UniProt P34021).
T1 construct: full-length EcR with C-terminal LgBiT (pFC34K-EcR) and RXR with C-terminal SmBiT (pFC36K-RXR), expressed in HEK293T cells; heterodimer; probably human RXR-alpha
T1 sequence (P34021 1-878): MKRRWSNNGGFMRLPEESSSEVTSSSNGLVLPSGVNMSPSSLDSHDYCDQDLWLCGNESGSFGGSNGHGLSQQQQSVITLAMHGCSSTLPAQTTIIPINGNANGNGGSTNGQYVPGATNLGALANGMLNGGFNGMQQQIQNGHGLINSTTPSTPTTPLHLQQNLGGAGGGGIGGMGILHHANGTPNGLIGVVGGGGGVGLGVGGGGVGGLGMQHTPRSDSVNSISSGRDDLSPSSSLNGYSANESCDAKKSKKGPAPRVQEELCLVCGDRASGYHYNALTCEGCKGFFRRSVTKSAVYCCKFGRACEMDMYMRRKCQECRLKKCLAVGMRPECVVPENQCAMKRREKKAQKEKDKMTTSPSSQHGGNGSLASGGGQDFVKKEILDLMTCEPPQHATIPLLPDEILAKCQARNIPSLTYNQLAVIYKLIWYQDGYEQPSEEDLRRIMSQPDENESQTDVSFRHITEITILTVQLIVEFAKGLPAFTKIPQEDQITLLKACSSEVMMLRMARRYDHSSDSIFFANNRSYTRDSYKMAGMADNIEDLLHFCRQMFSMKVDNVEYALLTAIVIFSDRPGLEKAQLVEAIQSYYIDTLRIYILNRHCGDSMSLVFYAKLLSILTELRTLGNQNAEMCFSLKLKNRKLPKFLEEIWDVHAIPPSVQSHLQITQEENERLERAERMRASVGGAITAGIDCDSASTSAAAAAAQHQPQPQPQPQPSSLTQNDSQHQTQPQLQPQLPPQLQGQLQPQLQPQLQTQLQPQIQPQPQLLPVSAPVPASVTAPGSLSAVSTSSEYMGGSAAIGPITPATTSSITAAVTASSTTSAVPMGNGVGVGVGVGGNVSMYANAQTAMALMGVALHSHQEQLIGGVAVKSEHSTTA
T1 sequence (P19793 1-462 partner): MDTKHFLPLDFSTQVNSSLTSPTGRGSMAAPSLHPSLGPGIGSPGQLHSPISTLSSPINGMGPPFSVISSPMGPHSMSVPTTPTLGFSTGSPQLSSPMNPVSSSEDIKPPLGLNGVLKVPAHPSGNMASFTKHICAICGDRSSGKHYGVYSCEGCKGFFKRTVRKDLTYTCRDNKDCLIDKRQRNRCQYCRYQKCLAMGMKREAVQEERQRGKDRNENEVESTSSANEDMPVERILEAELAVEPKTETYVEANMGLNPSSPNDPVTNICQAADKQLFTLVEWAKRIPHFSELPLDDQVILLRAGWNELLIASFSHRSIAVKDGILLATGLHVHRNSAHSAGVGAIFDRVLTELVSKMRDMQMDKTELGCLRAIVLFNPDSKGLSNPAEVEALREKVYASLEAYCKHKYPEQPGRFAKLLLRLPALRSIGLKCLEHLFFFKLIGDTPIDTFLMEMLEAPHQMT
The experiment can be described thus: NanoBiT split-luciferase assay of ligand-induced EcR-RXR heterodimerization in live HEK293T cells. The format is cell-based.

The structures appear in SMILES notation. Like-named read-outs stand apart in the source and are kept apart here.

`Cc1cc(C)cc(C(=O)N(NC(=O)c2ccc3c(c2C)CCCO3)C(C)(C)C)c1` [CF, chromafenozide] displayed a concentration for a half-maximal effect (EC50) of 4.76 µM.
Regarding `CC(C)(O)CC[C@@H](O)[C@](C)(O)[C@H]1CC[C@@]2(O)C3=CC(=O)[C@@H]4C[C@@H](O)[C@@H](O)C[C@]4(C)[C@H]3CC[C@]12C` [20E, 20-hydroxyecdysone], the EC50 (read-out: EC50) stood at 2.2 µM.
